# In ChEMBL document CHEMBL1201862, “PubChem BioAssay data set” (2004):
# Active and inactive are the calls of the source.
# What was measured:
# Beta-lactamase [1] = target: Beta-lactamase (Salmonella choleraesuis (strain SC-B67), UniProt Q5J463); test: Epi-absorbance-based counterscreen for selective VIM-2 inhibitors: dose response biochemical high throughput screening assay to identify inhibitors of TEM-1 serine-beta-lactamase.
# Beta-lactamase [2] = target: T1, Beta-lactamase (Pseudomonas aeruginosa, UniProt Q79MP6); test: inhibition of IMP-1 beta-lactamase activity – biochemical, epi-absorbance, selectivity assay for VIM-2 inhibitor project, dose response (AID 1920)
# T1 sequence (Q79MP6 whole entry): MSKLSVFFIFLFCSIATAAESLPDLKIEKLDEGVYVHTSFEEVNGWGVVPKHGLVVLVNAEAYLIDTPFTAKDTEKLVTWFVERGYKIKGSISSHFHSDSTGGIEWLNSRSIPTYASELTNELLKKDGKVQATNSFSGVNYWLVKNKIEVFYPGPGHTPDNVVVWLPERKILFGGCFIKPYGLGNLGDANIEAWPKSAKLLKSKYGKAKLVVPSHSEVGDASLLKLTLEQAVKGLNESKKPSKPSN
# Beta-lactamase [3] = target: T1, Beta-lactamase; test: […] counterscreen for selective VIM-2 inhibitors: dose response biochemical high throughput screening assay to identify inhibitors of IMP-1 metallo-beta-lactamase.
# cells [4] = format: functional, cell-based
# cells [5] = format: functional, cell-based; remark: listed apart in the source
# [6] = target: T2, Beta-2 adrenergic receptor (Homo sapiens, UniProt P07550); test: Dose response for HTS for Beta-2AR agonists via FAP method from Powderset1.; format: functional
# T2 sequence (P07550 whole entry): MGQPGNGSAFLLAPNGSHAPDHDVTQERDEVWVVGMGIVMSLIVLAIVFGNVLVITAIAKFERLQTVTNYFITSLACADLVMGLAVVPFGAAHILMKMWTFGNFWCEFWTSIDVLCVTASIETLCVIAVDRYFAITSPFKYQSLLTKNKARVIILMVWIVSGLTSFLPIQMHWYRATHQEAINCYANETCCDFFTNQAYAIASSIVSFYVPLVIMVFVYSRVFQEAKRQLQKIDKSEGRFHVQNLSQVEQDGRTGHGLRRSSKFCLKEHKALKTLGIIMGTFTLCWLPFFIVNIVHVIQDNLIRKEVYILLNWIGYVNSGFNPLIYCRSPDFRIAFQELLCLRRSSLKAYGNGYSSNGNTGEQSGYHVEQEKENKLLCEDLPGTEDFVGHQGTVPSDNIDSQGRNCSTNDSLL
# [7] = target: T2, Beta-2 adrenergic receptor; test: ADRB2 activation measured by internalization – cell-based, FAP fluorogen, flow cytometry, cherry pick 1, dose response (AID 588763); format: functional
# [8] = activation of miR-122 Renilla sensor silencing – cell-based, Huh7 psiCHECK-miR122, Renilla luciferase, cherry-picked, dose response (AID 651956); format: functional;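 note: huh7 hepatoma cells stably carrying a psiCHECK-2 miR-122 sensor plasmid; renilla luciferase signal reporting endogenous miR-122 activity after 48 h compound exposure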
# [9] = Counterscreen for IDE inhibitors: Luminescence-based cell-based high throughput dose response assay to identify compounds that are cytotoxic to HEK cells. [Related pubchem assays: 434962 (Primary screen (IDE inhibitors in singlicate)), 449730 (Counterscreen (Cytotoxicity in triplicate)), 435028 (Confirmation (IDE inhibitors in triplicate)) …; format: functional; settings: HEK293
# NS3 = NS3 (Hepatitis C virus, UniProt A3EZJ3); test: PubChem AID 2173; design: species or system Hepacivirus hominis
# Sequence of NS3 (A3EZJ3 whole entry): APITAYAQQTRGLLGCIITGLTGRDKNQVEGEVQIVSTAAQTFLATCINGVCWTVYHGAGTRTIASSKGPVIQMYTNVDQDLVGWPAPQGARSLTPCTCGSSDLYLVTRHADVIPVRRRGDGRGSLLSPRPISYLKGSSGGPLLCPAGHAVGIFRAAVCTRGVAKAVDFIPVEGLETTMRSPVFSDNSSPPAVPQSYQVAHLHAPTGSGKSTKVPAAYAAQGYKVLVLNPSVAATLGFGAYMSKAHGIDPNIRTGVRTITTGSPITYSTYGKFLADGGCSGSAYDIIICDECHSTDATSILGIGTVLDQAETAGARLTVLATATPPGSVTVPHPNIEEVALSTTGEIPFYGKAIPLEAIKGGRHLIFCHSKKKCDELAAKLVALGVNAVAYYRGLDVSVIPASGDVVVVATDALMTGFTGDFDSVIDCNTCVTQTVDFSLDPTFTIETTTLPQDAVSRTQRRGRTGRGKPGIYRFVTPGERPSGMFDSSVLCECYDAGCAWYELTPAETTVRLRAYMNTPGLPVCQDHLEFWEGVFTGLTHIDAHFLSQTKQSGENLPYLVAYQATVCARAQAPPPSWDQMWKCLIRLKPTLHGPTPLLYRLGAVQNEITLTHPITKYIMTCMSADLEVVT
# Insulin-degrading enzyme = target: T3, Insulin-degrading enzyme (Homo sapiens, UniProt P14735); test: Dose Response: Fluorescence polarization-based cell-based high throughput dose response assay for inhibitors of insulin-degrading enzyme (IDE). [Related pubchem assays: 434962 (Primary screen (IDE inhibitors in singlicate)), 449730 (Counterscreen (Cytotoxicity in triplicate)), 435028 (Confirmation (IDE inhibitors in triplicate)), 434984 (Summary …; format: functional
# T3 sequence (P14735 whole entry): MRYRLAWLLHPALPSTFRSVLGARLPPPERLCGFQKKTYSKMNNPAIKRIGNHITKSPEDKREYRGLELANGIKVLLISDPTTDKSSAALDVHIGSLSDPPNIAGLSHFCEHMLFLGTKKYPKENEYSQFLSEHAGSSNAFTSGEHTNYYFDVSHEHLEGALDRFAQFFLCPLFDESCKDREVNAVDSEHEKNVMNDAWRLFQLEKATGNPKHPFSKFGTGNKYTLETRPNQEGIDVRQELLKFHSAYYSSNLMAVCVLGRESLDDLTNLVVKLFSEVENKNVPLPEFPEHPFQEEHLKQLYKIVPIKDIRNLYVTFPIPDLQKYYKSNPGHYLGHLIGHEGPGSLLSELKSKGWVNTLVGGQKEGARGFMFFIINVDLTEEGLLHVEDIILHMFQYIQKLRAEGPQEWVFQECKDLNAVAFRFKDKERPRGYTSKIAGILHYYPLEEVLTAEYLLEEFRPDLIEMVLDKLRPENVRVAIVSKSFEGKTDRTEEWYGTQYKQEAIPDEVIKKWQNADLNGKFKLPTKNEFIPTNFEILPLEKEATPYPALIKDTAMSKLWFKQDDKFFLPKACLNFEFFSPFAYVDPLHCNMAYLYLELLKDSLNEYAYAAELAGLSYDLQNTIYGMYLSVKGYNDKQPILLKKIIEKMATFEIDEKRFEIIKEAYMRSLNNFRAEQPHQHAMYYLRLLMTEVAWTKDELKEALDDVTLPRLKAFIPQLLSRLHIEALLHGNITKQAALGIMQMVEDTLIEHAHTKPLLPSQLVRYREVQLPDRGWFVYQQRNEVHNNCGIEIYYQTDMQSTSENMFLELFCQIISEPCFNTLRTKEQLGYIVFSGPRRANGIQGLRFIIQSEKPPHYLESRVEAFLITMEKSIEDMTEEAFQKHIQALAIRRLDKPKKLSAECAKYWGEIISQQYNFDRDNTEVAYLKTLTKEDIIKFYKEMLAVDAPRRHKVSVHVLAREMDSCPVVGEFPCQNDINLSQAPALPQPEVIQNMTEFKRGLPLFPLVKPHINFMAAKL
# [10] = Luminescence Cell-Based Dose Retest to Confirm Inhibitors of Cancer Stem Cells. [Related pubchem assays (depositor defined):AID2717, AID2721]; format: functional; settings: Homo sapiens
# [11] = target: T4, Heat shock factor protein 1 (Mus musculus, UniProt P38532); test: enhancement of HSF1-driven luciferase signal – cell-based, NIH3T3, luminescence, dose retest, confirmation (AID 435004); format: functional;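 note: stress induced by proteasome inhibitor MG132 added 30 min after compound; luciferase reporter driven by HSF1 response element in NIH3T3 cells; actives raise luminescence as potentiators of the MG132 stress response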
# T4 sequence (P38532 whole entry): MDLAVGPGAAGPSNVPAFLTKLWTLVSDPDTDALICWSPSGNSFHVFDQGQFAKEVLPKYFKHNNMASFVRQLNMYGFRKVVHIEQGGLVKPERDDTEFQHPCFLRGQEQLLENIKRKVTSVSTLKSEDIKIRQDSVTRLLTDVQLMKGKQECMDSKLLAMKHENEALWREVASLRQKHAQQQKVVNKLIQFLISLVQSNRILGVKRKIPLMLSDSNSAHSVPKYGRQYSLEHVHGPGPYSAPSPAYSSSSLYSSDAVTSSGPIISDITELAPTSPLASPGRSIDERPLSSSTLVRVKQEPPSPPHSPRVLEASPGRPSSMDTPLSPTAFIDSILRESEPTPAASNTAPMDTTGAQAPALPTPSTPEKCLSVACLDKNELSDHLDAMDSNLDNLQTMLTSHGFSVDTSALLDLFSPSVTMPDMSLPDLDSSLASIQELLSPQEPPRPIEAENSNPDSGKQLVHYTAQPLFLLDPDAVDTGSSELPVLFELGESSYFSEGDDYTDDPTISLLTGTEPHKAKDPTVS
# [12] = target: Hepatocyte nuclear factor 4-alpha (Homo sapiens, UniProt P41235); format: functional, cell-based;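 note: biochemical luminescence-based dose-response counterscreen measuring inhibition of HNF4 dimerization, run alongside a screen for blockers of ABHD5–perilipin-5 interaction; split luciferase complementation of HNF4 fusion proteins in cell lysate measuring dimerization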
# Sequence of Hepatocyte nuclear factor 4-alpha (P41235 whole entry, the tested form may be a part): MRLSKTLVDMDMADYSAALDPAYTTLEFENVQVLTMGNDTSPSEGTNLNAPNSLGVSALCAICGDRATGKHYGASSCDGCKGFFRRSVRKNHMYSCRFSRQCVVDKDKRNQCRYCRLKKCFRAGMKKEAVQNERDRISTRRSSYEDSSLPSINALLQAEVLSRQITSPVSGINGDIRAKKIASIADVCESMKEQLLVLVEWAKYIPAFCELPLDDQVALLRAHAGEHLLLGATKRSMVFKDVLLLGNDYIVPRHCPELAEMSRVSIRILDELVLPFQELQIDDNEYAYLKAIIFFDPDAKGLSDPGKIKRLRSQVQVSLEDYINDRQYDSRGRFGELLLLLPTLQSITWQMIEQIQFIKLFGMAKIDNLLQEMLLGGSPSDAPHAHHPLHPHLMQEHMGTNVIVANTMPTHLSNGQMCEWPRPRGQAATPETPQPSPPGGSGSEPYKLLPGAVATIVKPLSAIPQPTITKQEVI
# [13] = Luminescence Cell-Based Dose Confirmation HTS to Identify Activators of 5'UTR Stem-Loop Driven Alpha-Synuclein mRNA Translation in H4 Neuroglioblastoma Cells. [Related pubchem assays: 1829 (Project Summary), 1814 (Primary HTS)]; format: functional
# [14] = Luminescence Cell-Based Dose Response HTS to Identify Activators of Luciferase Translation or Activity in H4 […] Cells. [Related pubchem assays: 1829 (Project Summary), 1814 (Primary HTS)]; format: functional
# H4 = test: Luminescence Cell-Based Dose Response HTS to Identify Activators of 5'UTR Stem-Loop Driven Prion Protein mRNA Translation in H4 Neuroglioblastoma Cells. [Related pubchem assays: 1829 (Project Summary), 1814 (Primary HTS)]; format: functional; settings: Homo sapiens
# HEK293 [15] = test: HEK293T cell viability loss, resazurin readout – resazurin fluorescence, cytotoxicity control for NF-kB activator project, SAR follow-up (AID 493251); format: functional, cell-based; settings: Homo sapiens
# Jurkat = test: SAR Analysis of small molecule inhibitors of T-cell specific antigen receptor-induced NF-kB activation in a Jurkat cell line using a luminescence assay - Set 2. [Related pubchem assays (depositor defined):AID435003, AID435012, AID465]; format: functional, cell-based; settings: Homo sapiens
# Vero [16] = test: cells; format: functional, cell-based; settings: Chlorocebus sabaeus
# HEK293 [17] = test: SAR Analysis of small molecule inhibitors of T-cell specific antigen receptor-induced NF-kB activation in a HEK-293T cell line using a luminescence assay - Set 2. [Related pubchem assays (depositor defined):AID435003, AID435012, AID489026]; format: functional, cell-based; settings: Homo sapiens
# Vero [18] = test: cells; format: functional; settings: Chlorocebus sabaeus
# [19] = target: SWI/SNF-related matrix-associated actin-dependent regulator of chromatin subfamily A member 2 (Homo sapiens, UniProt P51531); test: Luminescence-based cell-based high throughput dose response assay to identify activators of the function of SWI/SNF related, matrix associated, actin dependent regulator of chromatin, subfamily a, member 2 (SMARCA2, BRM).; format: functional
# Sequence of SWI/SNF-related matrix-associated actin-dependent regulator of chromatin subfamily A member 2 (P51531 whole entry): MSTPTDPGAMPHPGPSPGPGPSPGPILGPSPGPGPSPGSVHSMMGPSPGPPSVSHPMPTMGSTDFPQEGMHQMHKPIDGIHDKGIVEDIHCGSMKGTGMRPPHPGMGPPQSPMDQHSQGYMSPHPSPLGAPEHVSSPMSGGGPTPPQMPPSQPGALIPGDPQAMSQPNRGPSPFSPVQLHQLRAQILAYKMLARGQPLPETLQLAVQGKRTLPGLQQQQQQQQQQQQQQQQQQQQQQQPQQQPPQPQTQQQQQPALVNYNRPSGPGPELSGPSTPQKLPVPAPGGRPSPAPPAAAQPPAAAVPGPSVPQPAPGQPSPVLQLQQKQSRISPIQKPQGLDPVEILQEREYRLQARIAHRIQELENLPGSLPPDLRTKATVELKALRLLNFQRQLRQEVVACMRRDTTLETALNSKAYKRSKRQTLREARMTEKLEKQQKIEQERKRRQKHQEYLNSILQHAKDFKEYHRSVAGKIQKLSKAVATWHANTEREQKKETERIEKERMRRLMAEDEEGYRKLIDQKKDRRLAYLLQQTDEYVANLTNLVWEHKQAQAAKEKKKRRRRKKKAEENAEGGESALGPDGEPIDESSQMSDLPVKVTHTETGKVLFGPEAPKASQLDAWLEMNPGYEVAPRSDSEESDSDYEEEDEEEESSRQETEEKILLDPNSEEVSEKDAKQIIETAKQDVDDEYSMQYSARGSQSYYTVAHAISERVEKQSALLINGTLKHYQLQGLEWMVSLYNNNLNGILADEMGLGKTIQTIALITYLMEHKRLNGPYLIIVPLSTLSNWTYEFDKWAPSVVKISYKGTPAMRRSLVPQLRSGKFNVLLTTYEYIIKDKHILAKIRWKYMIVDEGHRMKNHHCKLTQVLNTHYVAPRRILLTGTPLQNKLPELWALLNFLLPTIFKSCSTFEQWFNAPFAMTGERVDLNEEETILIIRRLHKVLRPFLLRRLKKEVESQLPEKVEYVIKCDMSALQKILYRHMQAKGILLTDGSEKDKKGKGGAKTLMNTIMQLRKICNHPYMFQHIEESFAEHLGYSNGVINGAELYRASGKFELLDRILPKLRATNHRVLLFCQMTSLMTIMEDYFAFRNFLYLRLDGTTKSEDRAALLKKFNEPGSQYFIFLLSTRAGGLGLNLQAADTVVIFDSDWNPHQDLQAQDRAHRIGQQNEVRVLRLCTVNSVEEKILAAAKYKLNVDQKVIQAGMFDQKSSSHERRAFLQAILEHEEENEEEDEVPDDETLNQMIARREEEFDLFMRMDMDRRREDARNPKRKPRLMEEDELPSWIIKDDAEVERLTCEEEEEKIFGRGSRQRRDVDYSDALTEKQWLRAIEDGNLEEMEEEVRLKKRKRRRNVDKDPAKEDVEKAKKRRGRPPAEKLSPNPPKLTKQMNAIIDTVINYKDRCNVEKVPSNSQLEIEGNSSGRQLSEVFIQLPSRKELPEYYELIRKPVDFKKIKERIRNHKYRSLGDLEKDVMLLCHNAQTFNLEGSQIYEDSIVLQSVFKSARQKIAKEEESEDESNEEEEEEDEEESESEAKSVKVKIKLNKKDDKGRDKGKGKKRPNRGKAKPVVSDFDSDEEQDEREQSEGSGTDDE
# [20] = Counterscreen for activators of the function of SWI/SNF related, matrix associated, actin dependent regulator of chromatin, subfamily a, member 2 (SMARCA2, BRM): Luminescence-based cell-based high throughput dose response assay to identify non-selective compounds using the VP16 reporter assay.; format: functional
# [21] = NIH-3T3 fibroblast cytotoxicity, dose response, cytotoxicity control, cell-based, fluorescence, Alamar Blue, secondary assay (AID 2327); format: functional;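 note: NIH-3T3 mouse fibroblasts cultured with fluconazole at 8 µg/mL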
# [22] = fluconazole-exposed Candida albicans growth modulators – fluorescence, retest, confirmation (AID 2467); format: functional, cell-based
# [23] = microbe, parasite or virus in culture; format: functional; settings: Mycobacterium tuberculosis
# [24] = target: T5, Serine/threonine-protein phosphatase (Candida dubliniensis (strain CD36 / CBS 7987 / NCPF 3949 / NRRLY-17841) (Yeast), UniProt B9W6M3); test: blockers of CaCl2-induced CDRE-lacZ signaling – S. cerevisiae, luminescence, secondary, dose response (AID 2388); format: functional, cell-based;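 note: yeast reporter cells carrying a calcineurin-responsive lacZ construct stimulated with calcium chloride; luminescent beta-galactosidase reporter signal in whole cells rather than isolated phosphatase activity; potency for inhibition where a drop in reporter signal means calcineurin blockade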
# T5 sequence (B9W6M3 whole entry): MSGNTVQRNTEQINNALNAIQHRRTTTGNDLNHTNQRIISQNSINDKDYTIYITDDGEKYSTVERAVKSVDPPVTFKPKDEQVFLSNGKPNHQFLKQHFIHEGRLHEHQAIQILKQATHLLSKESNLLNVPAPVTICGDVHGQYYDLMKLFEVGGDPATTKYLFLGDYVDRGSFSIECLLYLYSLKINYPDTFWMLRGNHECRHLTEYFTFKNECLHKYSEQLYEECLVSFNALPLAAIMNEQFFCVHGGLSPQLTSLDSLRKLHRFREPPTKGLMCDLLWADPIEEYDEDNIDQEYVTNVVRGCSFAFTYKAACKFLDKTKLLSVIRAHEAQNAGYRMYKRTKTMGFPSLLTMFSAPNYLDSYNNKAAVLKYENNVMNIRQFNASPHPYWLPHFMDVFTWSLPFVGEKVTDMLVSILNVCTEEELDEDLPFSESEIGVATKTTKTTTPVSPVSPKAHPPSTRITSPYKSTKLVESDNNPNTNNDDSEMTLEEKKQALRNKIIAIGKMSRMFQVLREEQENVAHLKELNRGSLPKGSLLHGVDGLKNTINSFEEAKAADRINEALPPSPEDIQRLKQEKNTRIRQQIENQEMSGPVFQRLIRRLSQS
# [25] = target: T6, Sphingosine 1-phosphate receptor 4 (Homo sapiens, UniProt O95977); test: Fluorescence dose response cell-based high throughput screening assay for antagonists of the Sphingosine 1-Phosphate Receptor 4 (S1P4). [Related pubchem assays: 1524 (Confirmation in triplicates.), 1510 (Primary screen.)]; format: functional
# T6 sequence (O95977 whole entry): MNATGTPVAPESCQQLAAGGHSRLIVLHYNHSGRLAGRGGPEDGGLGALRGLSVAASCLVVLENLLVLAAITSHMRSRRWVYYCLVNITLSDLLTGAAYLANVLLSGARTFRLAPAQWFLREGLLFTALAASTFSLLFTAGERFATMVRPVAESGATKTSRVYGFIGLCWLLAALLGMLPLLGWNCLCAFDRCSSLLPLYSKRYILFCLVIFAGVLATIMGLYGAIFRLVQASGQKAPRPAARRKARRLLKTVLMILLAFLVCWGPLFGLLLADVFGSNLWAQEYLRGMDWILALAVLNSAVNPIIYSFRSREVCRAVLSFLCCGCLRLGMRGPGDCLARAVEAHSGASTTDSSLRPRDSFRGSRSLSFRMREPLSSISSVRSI
# [26] = target: Sphingosine 1-phosphate receptor 1 (Homo sapiens, UniProt P21453); format: functional;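 note: Tango beta-arrestin reporter U2OS cells stimulated with S1P near its EC80; inhibitor potency meaning antagonism of receptor activation by the natural agonist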
# Sequence of Sphingosine 1-phosphate receptor 1 (P21453 whole entry): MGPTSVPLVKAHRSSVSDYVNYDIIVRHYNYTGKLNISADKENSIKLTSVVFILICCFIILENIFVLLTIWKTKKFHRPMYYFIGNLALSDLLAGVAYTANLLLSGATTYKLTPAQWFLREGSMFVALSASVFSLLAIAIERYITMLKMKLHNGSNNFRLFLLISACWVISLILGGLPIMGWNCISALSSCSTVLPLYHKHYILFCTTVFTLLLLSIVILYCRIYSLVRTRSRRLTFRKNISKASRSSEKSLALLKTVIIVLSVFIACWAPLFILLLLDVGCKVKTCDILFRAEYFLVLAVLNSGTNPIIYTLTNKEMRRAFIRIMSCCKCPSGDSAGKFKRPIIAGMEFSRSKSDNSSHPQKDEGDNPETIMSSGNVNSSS
# [27] = target: Neurotensin receptor type 1 (Homo sapiens, UniProt P30989); format: functional;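 note: Image-based confirmatory dose-response assay measuring agonist activity at NTR1; NTR1-expressing U2OS osteosarcoma cells imaged for beta-arrestin GFP spot formation; agonist potency where compounds increase beta-arrestin recruitment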
# Sequence of Neurotensin receptor type 1 (P30989 whole entry): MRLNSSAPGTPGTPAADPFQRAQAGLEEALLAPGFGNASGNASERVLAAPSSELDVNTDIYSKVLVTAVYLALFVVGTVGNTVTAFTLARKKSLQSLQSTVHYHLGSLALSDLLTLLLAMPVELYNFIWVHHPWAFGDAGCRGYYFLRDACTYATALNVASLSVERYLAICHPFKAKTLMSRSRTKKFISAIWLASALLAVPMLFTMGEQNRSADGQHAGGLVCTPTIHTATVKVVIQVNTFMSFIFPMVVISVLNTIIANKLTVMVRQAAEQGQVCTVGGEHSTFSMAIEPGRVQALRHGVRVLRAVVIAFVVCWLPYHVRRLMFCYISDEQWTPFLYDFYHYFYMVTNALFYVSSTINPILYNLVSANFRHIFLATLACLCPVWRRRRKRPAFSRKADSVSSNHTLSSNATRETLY
# [28] = target: Heat shock protein HSP 90-alpha (Homo sapiens, UniProt P07900); format: functional, organism-based
# [29] = target: T5, Serine/threonine-protein phosphatase; test: Fluorescence Cell-Based Secondary Assay to Identify Inhibitors of Calcineurin. [Related pubchem assays (depositor defined):AID1979, AID2007]; format: functional
# [30] = target: ATP-dependent molecular chaperone HSP82 (Candida albicans (strain WO-1) (Yeast), UniProt C4YTQ8); test: steroid-induced GRE reporter decrease in yeast – S. cerevisiae, luminescence, Hsp90 inhibitor project, dose response (AID 2400); format: functional, cell-based;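 note: beta-galactosidase luminescence from glucocorticoid response element reporter as proxy for Hsp90 function; inhibitor potency where signal loss means Hsp90 inhibition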
# Sequence of ATP-dependent molecular chaperone HSP82 (C4YTQ8 whole entry, the tested form may be a part): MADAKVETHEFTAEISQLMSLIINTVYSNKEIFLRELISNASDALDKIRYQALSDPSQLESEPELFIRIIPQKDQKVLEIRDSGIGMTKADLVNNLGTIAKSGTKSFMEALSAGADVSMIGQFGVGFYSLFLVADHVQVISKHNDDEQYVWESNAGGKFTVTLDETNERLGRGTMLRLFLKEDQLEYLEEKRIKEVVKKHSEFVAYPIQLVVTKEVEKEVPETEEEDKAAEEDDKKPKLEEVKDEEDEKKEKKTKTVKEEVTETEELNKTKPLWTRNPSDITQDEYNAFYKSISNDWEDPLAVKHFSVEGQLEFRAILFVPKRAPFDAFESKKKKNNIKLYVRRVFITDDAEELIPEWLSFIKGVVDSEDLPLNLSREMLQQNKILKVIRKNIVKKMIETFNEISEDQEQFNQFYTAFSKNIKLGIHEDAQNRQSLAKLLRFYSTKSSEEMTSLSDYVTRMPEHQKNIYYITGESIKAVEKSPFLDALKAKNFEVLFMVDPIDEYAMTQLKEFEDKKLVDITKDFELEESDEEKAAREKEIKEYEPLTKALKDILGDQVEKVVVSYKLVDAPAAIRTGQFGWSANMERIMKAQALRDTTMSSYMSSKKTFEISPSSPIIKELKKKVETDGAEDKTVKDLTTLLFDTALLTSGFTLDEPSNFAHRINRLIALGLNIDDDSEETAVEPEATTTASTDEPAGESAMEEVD
# [31] = Fluorescence-based cell-based high throughput dose response assay for inhibitors of the interaction of nucleotide-binding oligomerization domain containing 2 (NOD2) and the receptor-interacting serine-threonine kinase 2 (RIPK2).; format: functional; settings: Homo sapiens
smiles,measurement,setting,value
COCC(=O)Nc1nnc(SCC(=O)NCc2cccs2)s1,IC50,Beta-lactamase [1],> 59.6 µM (inactive)
same,IC50,Beta-lactamase [2],> 59.6 µM (inactive)
same,IC50,Beta-lactamase [3],> 59.6 µM (inactive)
O=C(c1ccc(OC2CCN(Cc3ccc(F)cc3)CC2)cc1)N1CCCC1,EC50,cells [4],> 350 µM (not active)
same,EC50,cells [5],> 350 µM (not active)
same,EC50,[6],5.28 µM (active)
same,EC50,[7],1.6 µM (active)
CC(C)C#Cc1ccc2c(c1)O[C@H](CN(C)C(=O)c1ccncc1)[C@H](C)CN([C@H](C)CO)S2(=O)=O,AC50,[8],3.04 µM (active)
Cc1ccc(C(=O)/C=C/c2cc(Br)cc(Br)c2O)o1,IC50,[9],19.8 µM (not active)
same,IC50,NS3,9.14 µM (active)
same,IC50,Insulin-degrading enzyme,21 µM (not active)
same,AC50,[10],3.09 µM (active)
same,EC50,[11],16.8 µM (active)
same,IC50,[12],11 µM (inactive)
CC(=O)c1ccc(NC(=O)c2ccc([N+](=O)[O-])o2)cc1,EC50,[13],> 120 µM (not active)
same,EC50,[14],> 120 µM (not active)
same,EC50,H4,> 120 µM (not active)
same,AC50,[10],4.95 µM (active)
same,IC50,HEK293 [15],51.8 µM (inactive)
same,IC50,Jurkat,35.2 µM (inactive)
same,IC50,Vero [16],> 25 µM (active)
same,IC50,HEK293 [17],38.9 µM (inactive)
same,CC50,Vero [18],14.3 µM (active)
same,EC50,[19],> 91.1 µM (inactive)
same,EC50,[20],> 91.1 µM (inactive)
CCc1ccc2c(c1)/C(=C/C(=O)c1cccs1)C(=O)N2,EC50,[21],> 150 µM (inactive)
same,EC50,[22],6.49 µM (active)
same,CC50,[23],7.23 µM (active)
same,EC50,[24],> 180 µM (inactive)
same,IC50,[25],1.46 µM (active)
same,IC50,[26],20.9 µM (not active)
same,EC50,[27],17.7 µM (active)
same,AC50,[28],4.18 µM (active)
same,EC50,[29],5.99 µM (active)
same,EC50,[30],1.25 µM (active)
same,IC50,[31],4.53 µM (active)
